Test results published in patent US20060281798A1, “Methods of using thiazolidinedithione derivatives” (QLT Inc., priority 2002, published 2006).

Columns and labels:
Assay type in all cases: cell-based
PC3 Cells = experiment: Cell proliferation (3H-thymidine incorporation), PC3; conditions: Homo sapiens, PC-3, 24 hours
From the text: (§1) This procedure (Jelinkova, R. B. et al., “Antiproliferative effect of a lectin- and anti-Thy-1.2 antibody-targeted HPMA copolymer-bound doxorubicin on primary and metastatic human colorectal carcinoma and on human colorectal carcinoma transfected with the mouse Thy-1.2 gene”, Bioconjug. Chem. (2000, September-October), Vol. 11, No. 5, pp. 664-73) is used to assess the effect compounds have on various cell lines with respect to proliferation. The rate of anchorage-independent growth of various tumor cells is quantified by measuring the amount of free isotopic thymidine that has been incorporated into the cells over a period of time. The effect of any compound to inhibit the proliferation of various tumor cells could be used as an indication of its ability to prevent disease progression in cancer.
(§2) Cultured tumour cells are harvested cells as per normal procedures: i.e. trypsinize, centrifuge and count cells. […]
(§3) After incubation, plates are observed under the microscope for obvious cell death, abnormal cell shape, crystal formation of the compound, etc. […] Finally, 100 μL of scintillation fluid is added to each well and the plates are counted in a Wallac 1450 Microbeta™ counter according to user manual instructions.
(§4) The amount of inhibition is determined by the following formula: % inhibition=100−[(AVG treatment−AVG positive control)/[…]]

[1] = test system: PC3 cells, PTPN12 mouse embryonic fibroblasts (MEFs); experiment: Cell migration in a Boyden chamber; conditions: PC-3, cell line of Table 2 not stated
From the text: A range of cell lines are used in this assay, particularly the prostate cancer cell line PC3 and PTPN12 mouse embryonic fibroblasts (MEFs). The role of PTPN12 in migration was established based on the observations of PTPN12 negative MEFs. Cell adhesion and migration are dynamic biological activities involving the assembly and disassembly of a large number of extracellular and intracellular molecules, for example, actin, which are regulated in turn by protein phosphorylation. […] Migration is reduced in PTPN12 knock-out MEFs. By extension, a PTPN12 inhibitor should reduce cell migration in a Boyden chamber. Therefore, as a readout for PTPN12 activity, the following assay is designed to analyze cell migration in Boyden chambers. […]
For tumour cell lines, stock cells (i.e. PC3 cells) are grown to 50-70% confluency in T175 flasks. […] Fluorescence of migrated cells is read in a Fluoroskan Ascent FL™ (or equivalent) with bottom reading at excitation/emission wavelength of 485/538 nm. Only those cells that have migrated through the pores of the FluoroBlok™ membrane will be read. […]
Data is expressed as fluorescence unit (FU) from the sum of middle 25 areas per 24-well or as percentage of migration inhibition by following formula: % of invasion inhibition=100−FU of compound treated cell invasion/FU of DMSO treated cell invasion times 100. […]

H460 Cells = experiment: Cell proliferation (3H-thymidine incorporation), H460; conditions: Homo sapiens, NCI-H460, 24 hours
From the text: as §1, §2, §3, §4

## S=C1NC(=S)C(=Cc2ccc(-c3ccc(Br)cc3)o2)S1 [5-[5-(4-Bromophenyl)-furan-2-ylmethylene]-thiazolidine-2,4-dithione]
PC3 Cells
  inhibition at 50 µM: 15%
[1]
  inhibition at 25 µM: 65%
H460 Cells
  inhibition at 50 µM: 89%
